Test results published in ChEMBL document CHEMBL2401638, “Design and synthesis of biquinolone-isoniazid hybrids as a new class of antitubercular and antimicrobial agents” (Eur J Med Chem, 2013).

Legend:
Trichophyton rubrum = assay: Antifungal activity against Trichophyton rubrum MTCC 296 assessed as growth inhibition by broth microdilution method; format: functional
Candida albicans = assay: Antifungal activity against Candida albicans MTCC 227 assessed as growth inhibition by broth microdilution method; format: functional
[1] = system: Mycobacterium tuberculosis; assay: Antituberculosis activity against Mycobacterium tuberculosis H37Rv assessed as growth inhibition at 250 ug/ml after 12 to 28 days by Lowenstein-Jensen method relative to control; format: functional; conditions: read-out: GI
Clostridium tetani = assay: Antibacterial activity against Clostridium tetani MTCC 449 assessed as growth inhibition by broth microdilution method; format: functional
Pseudomonas aeruginosa = assay: Antibacterial activity against Pseudomonas aeruginosa MTCC 1688 assessed as growth inhibition by broth microdilution method; format: functional
Bacillus subtilis = assay: Antibacterial activity against Bacillus subtilis MTCC 441 assessed as growth inhibition by broth microdilution method; format: functional
Staphylococcus aureus = assay: Antibacterial activity against Staphylococcus aureus MTCC 96 assessed as growth inhibition by broth microdilution method; format: functional
Escherichia coli = assay: Antibacterial activity against Escherichia coli MTCC 443 assessed as growth inhibition by broth microdilution method; format: functional
Salmonella typhi = assay: Antibacterial activity against Salmonella typhi MTCC 98 assessed as growth inhibition by broth microdilution method; format: functional, Salmonella enterica subsp. enterica serovar Typhi; conditions: Salmonella enterica

Compound | MIC (Trichophyton rubrum) [µg/mL] | MIC (Candida albicans) [µg/mL] | inhibition of growth at 250 µg/mL [1] [%] | MIC (Clostridium tetani) [µg/mL] | MIC (Pseudomonas aeruginosa) [µg/mL] | MIC (Bacillus subtilis) [µg/mL] | MIC (Staphylococcus aureus) [µg/mL] | MIC (Escherichia coli) [µg/mL] | MIC (Salmonella typhi) [µg/mL]
COC1=CC(=O)C[C@@H](C)[C@]12Oc1c(Cl)c(OC)cc(OC)c1C2=O [GRISEOFULVIN] | 100 | 500 |  |  |  |  |  |  | 
C=CCn1c(=O)c(C2C(C(=O)OC(C)C)=C(N)N(NC(=O)c3ccncc3)C3=C2C(=O)CCC3)cc2cc(C)ccc21 (configuration not stated) | 1000 | 1000 | 22 | 500 | 500 | 500 | 500 | 250 | 200
C=CCn1c(=O)c(C2C(C(=O)OC(C)C)=C(N)N(NC(=O)c3ccncc3)C3=C2C(=O)CCC3)cc2ccccc21 (configuration not stated) | 500 | 1000 | 65 | 500 | 500 | 250 | 500 | 100 | 125
O=C(N[C@H](CO)[C@H](O)c1ccc([N+](=O)[O-])cc1)C(Cl)Cl [CHLORAMPHENICOL] |  |  |  | 50 | 50 | 50 | 50 | 50 | 50
C=CCn1c(=O)c(C2C(C(=O)OCC)=C(N)N(NC(=O)c3ccncc3)C3=C2C(=O)CCC3)cc2cc(C)ccc21 (configuration not stated) | 100 | 500 | 23 | 62.5 | 250 | 250 | 100 | 500 | 500
NYSTATIN | 100 | 100 |  |  |  |  |  |  | 
C=CCn1c(=O)c(C2C(C(=O)OC(C)C)=C(N)N(NC(=O)c3ccncc3)C3=C2C(=O)CC(C)(C)C3)cc2cc(OC)ccc21 (configuration not stated) | 500 | 1000 | 74 | 500 | 250 | 250 | 500 | 200 | 250
C=CCn1c(=O)c(C2C(C(=O)OC)=C(N)N(NC(=O)c3ccncc3)C3=C2C(=O)CC(C)(C)C3)cc2cc(OC)ccc21 (configuration not stated) | 500 | 1000 | 45 | 200 | 250 | 250 | 250 | 200 | 200
C=CCn1c(=O)c(C2C(C(=O)OCC)=C(N)N(NC(=O)c3ccncc3)C3=C2C(=O)CC(C)(C)C3)cc2cc(Cl)ccc21 (configuration not stated) | 500 | 1000 | 56 | 250 | 100 | 200 | 250 | 200 | 200
CC1(C)S[C@@H]2[C@H](NC(=O)[C@H](N)c3ccccc3)C(=O)N2[C@H]1C(=O)O [AMPICILLIN] |  |  |  | 250 |  | 250 | 250 | 100 | 100
C=CCn1c(=O)c(C2C(C(=O)OC)=C(N)N(NC(=O)c3ccncc3)C3=C2C(=O)CCC3)cc2ccccc21 (configuration not stated) | 500 | 500 | 74 | 125 | 50 | 100 | 125 | 500 | 250
C=CCn1c(=O)c(C2C(C(=O)OCC)=C(N)N(NC(=O)c3ccncc3)C3=C2C(=O)CC(C)(C)C3)cc2ccccc21 (configuration not stated) | 500 | 250 | 84 | 500 | 500 | 500 | 250 | 50 | 100
C=CCn1c(=O)c(C2C(C(=O)OCC)=C(N)N(NC(=O)c3ccncc3)C3=C2C(=O)CCC3)cc2cc(Cl)ccc21 (configuration not stated) | 1000 | 250 | 87 | 125 | 500 | 250 | 100 | 100 | 250
C=CCn1c(=O)c(C2C(C(=O)OC)=C(N)N(NC(=O)c3ccncc3)C3=C2C(=O)CC(C)(C)C3)cc2ccccc21 (configuration not stated) | > 1000 | 250 | 74 | 200 | 125 | 125 | 200 | 200 | 200
C=CCn1c(=O)c(C2C(C(=O)OC(C)C)=C(N)N(NC(=O)c3ccncc3)C3=C2C(=O)CCC3)cc2cc(OC)ccc21 (configuration not stated) | 1000 | 250 | 27 | 250 | 250 | 250 | 250 | 200 | 250
C=CCn1c(=O)c(C2C(C(=O)OC)=C(N)N(NC(=O)c3ccncc3)C3=C2C(=O)CCC3)cc2cc(C)ccc21 (configuration not stated) | > 1000 | 500 | 58 | 500 | 100 | 62.5 | 500 | 500 | 250
C=CCn1c(=O)c(C2C(C(=O)OC)=C(N)N(NC(=O)c3ccncc3)C3=C2C(=O)CCC3)cc2cc(Cl)ccc21 (configuration not stated) | 1000 | 1000 | 89 | 200 | 500 | 500 | 250 | 250 | 200
CCn1cc(C(=O)O)c(=O)c2cc(F)c(N3CCNCC3)cc21 [NORFLOXACIN] |  |  |  | 50 | 10 | 100 | 10 | 10 | 10
C=CCn1c(=O)c(C2C(C(=O)OCC)=C(N)N(NC(=O)c3ccncc3)C3=C2C(=O)CCC3)cc2ccccc21 (configuration not stated) | > 1000 | 500 | 51 | 250 | 500 | 500 | 250 | 500 | 250
C=CCn1c(=O)c(C2C(C(=O)OC(C)C)=C(N)N(NC(=O)c3ccncc3)C3=C2C(=O)CC(C)(C)C3)cc2ccccc21 (configuration not stated) | 250 | 1000 | 78 | 500 | 250 | 500 | 500 | 200 | 25
C=CCn1c(=O)c(C2C(C(=O)OC(C)C)=C(N)N(NC(=O)c3ccncc3)C3=C2C(=O)CCC3)cc2cc(Cl)ccc21 (configuration not stated) | 500 | 500 | 89 | 200 | 200 | 200 | 200 | 250 | 500
C=CCn1c(=O)c(C2C(C(=O)OC)=C(N)N(NC(=O)c3ccncc3)C3=C2C(=O)CC(C)(C)C3)cc2cc(Cl)ccc21 (configuration not stated) | 1000 | 500 | 87 | 100 | 500 | 500 | 200 | 250 | 200
O=C(O)c1cn(C2CC2)c2cc(N3CCNCC3)c(F)cc2c1=O [CIPROFLOXACIN] |  |  |  |  |  |  | 50 | 25 | 25
